Data from patent US20100056627A1, “PHARMACEUTICAL COMPOSITIONS OF ALKYL GALLATES” (priority 2006, published 2010).
≈ marks a conversion by molar mass, not a printed value.

Experiments:
[1] = system: gram-positive and gram-negative bacteria; assay: MIC (minimum growth inhibition concentration), 2-fold serial agar plate dilution on Mueller Hinton II Agar, with concomitant alkyl gallate and salt; details: n-heptyl, n-hexyl, n-pentyl, n-butyl, isobutyl or n-propyl gallate at a concentration equal to or less than MIC
[2] = system: Pseudomonas aeruginosa POA1; assay: Antimicrobial action (MIC) of lauryl gallate with isoamyl gallate or propyl gallate in 3% NaCl; format: cell-based; details: for MIC: Pseudomonas aeruginosa, P. aoruginosa PAO1, MHA (3% NaCl)
influenza virus = assay: Influenza virucidal activity of n-dodecyl gallate with n-hexyl gallate or n-butyl gallate (FIG. 3); format: cell-based
Description: FIG. 3 is a graph showing reinforcement of the influenza virucidal activity of n-dodecyl gallate by n-hexyl gallate and n-butyl gallate. The abscissa axis indicates the concentrations of n-dodecyl gallate.
The open circle in FIG. 3 indicates an influenza virucidal effect of dodecyl gallate alone.

clinical isolate MRSA = assay: Oxacillin MIC against MRSA with concomitant octyl gallate and short-chain alkyl gallate (β-lactam sensitivity, ILSMR effect); format: cell-based, Staphylococcus aureus; details: Staphylococcus aureus, MRSA, 24 h, Isoamyl G 25 μg/mL; Octyl G 1.5625 μg/mL
[3] = system: Candida albicans ATCC 10231; assay: Time required for killing mold, octyl gallate and propyl gallate (FIG. 2); format: cell-based; details: Candida albicans ATCC 10231, FIG. 2
Description: FIG. 2 is a graph showing shortening of the time required for killing mold by the concomitant use of octyl gallate and propyl gallate against Candida albicans ATCC 10231.

influenza virus B/T/1/05 = assay: Time course of virucidal activity at 37° C., infectivity by plaque assay in MDCK cells (FIGS. 6 to 12); format: cell-based; details: influenza B/T/1/05, FIGS. 6 and 8
Procedure: The experiments in FIGS. 7 to 12 were carried out at 37° C. The infectivity of viruses was determined using MDCK cells by the plaque assay method.
This virucidal activity of octyl gallate was reinforced by propyl gallate also against influenza virus A/Aichi (H3N2) in the same manner as above.

MRSA COL strain = assay: Time required for killing bacteria, octyl gallate and propyl gallate (FIG. 1); format: cell-based, Staphylococcus aureus
Description: FIG. 1 is a graph showing shortening of the time required for killing bacteria by the concomitant use of octyl gallate and propyl gallate against MRSA COL strain.

herpes virus (HSV-1) = assay: Virucidal activity against HSV-1 (Tables 14, 15, FIG. 5); format: cell-based
[4] = system: influenza virus A/Aichi (H3N2); assay: Virucidal activity against influenza virus A/Aichi (H3N2) (Table 16); details: Table 16, NaCitrate 0.90%

CCCCCCCCCCCCOC(=O)c1cc(O)c(O)c(O)c1 [dodecyl gallate, n-dodecyl gallate]
change of MIC value by addition of shorter-chain alkyl gallate [1]: decreased
MIC ([2]; PAO1, 24 h, concomitant none, 24 h): 15.6 µg/mL (≈ 46.2 µM)
MIC ([2]; PAO1, 48 h, concomitant none, 48 h): 31.2 µg/mL (≈ 92.3 µM)
MIC ([2]; PAO1, 48 h, isoamyl gallate 50 μg/mL, 48 h): 3.91 µg/mL (≈ 11.5 µM)
MIC ([2]; PAO1, 48 h, isoamyl gallate 75 μg/mL, 48 h): 0.977 µg/mL (≈ 2.89 µM)
MIC ([2]; PAO1, 48 h, propyl gallate 75 μg/mL, 48 h): 0.488 µg/mL (≈ 1.44 µM)
antimicrobial action of lauryl gallate ([2]; isoamyl gallate or propyl gallate in the presence of 3% NaCl (Table 6)): reinforced
virucidal effect of dodecyl gallate (influenza virus; addition of butyl gallate at a concentration without virucidal effect): reinforced markedly
dodecyl gallate concentration at which no survivor was observed (influenza virus; coexistence of 100 μg/ml of hexyl gallate): 20 µg/mL

CCCCCCCCCCOC(=O)c1cc(O)c(O)c(O)c1 [n-decyl gallate]
change of MIC value by addition of shorter-chain alkyl gallate [1]: decreased

CCCCCCCCCOC(=O)c1cc(O)c(O)c(O)c1 [n-nonyl gallate]
change of MIC value by addition of shorter-chain alkyl gallate [1]: decreased

CCCCCCCCCCCOC(=O)c1cc(O)c(O)c(O)c1 [n-undecyl gallate]
change of MIC value by addition of shorter-chain alkyl gallate [1]: decreased

Cc1onc(-c2ccccc2)c1C(=O)N[C@@H]1C(=O)N2[C@@H]1SC(C)(C)[C@@H]2C(=O)O [oxacillin, reference compound]
MIC (clinical isolate MRSA): 0.125 µg/mL

CCCOC(=O)c1cc(O)c(O)c(O)c1 [propyl gallate]
fungicidal activity alone [3]: low
virucidal activity alone (influenza virus B/T/1/05): low
bactericidal activity alone (MRSA COL strain): low
No of plaques (herpes virus (HSV-1); Table 14, octyl gallate 0, propyl gallate 300 mg/L, J1816 90 mg/L, Na3citrate 0.90%): 0
No of plaques (herpes virus (HSV-1); Table 14, propyl gallate 100 mg/L, J1816 30 mg/L, Na3citrate 0.90%): 0
No of plaques (herpes virus (HSV-1); Table 14, propyl gallate 200 mg/L, J1816 60 mg/L, Na3citrate 0.90%): 0
No of plaques (herpes virus (HSV-1); Table 14, propyl gallate 300 mg/L, J1816 90 mg/L, Na3citrate 0.90%): 0
No of plaques (herpes virus (HSV-1); Table 14, propyl gallate 400 mg/L, J1816 120 mg/L, Na3citrate 0.90%): 0
No of plaques (herpes virus (HSV-1); Table 14, propyl gallate 500 mg/L, J1816 150 mg/L, Na3citrate 0.90%): 0
No of plaques (herpes virus (HSV-1); Table 15, octyl gallate 0, propyl gallate 300 mg/L, J1816 0, NaCitrate 0.90%): 137
No of plaques (herpes virus (HSV-1); Table 15, propyl gallate 100 mg/L, J1816 0, NaCitrate 0.90%): 192
No of plaques (herpes virus (HSV-1); Table 15, propyl gallate 200 mg/L, J1816 0, NaCitrate 0.90%): 139
No of plaques (herpes virus (HSV-1); Table 15, propyl gallate 300 mg/L, J1816 0, NaCitrate 0.90%): 162
No of plaques (herpes virus (HSV-1); Table 15, propyl gallate 400 mg/L, J1816 0, NaCitrate 0.90%): 102
No of plaques (herpes virus (HSV-1); Table 15, propyl gallate 500 mg/L, J1816 0, NaCitrate 0.90%): 130
No of plaques ([4]; octyl gallate 0, propyl gallate 300 mg/L, J1816 90 mg/L): 52
No of plaques ([4]; propyl gallate 100 mg/L, J1816 30 mg/L): 84
No of plaques ([4]; propyl gallate 200 mg/L, J1816 60 mg/L): 87
No of plaques ([4]; propyl gallate 300 mg/L, J1816 90 mg/L): 53
No of plaques ([4]; propyl gallate 400 mg/L, J1816 120 mg/L): 47
No of plaques ([4]; propyl gallate 500 mg/L, J1816 150 mg/L): 42
